Source: ChEMBL document CHEMBL1667813, “Difluoroethylamines as an amide isostere in inhibitors of cathepsin K” (Bioorg Med Chem Lett, 2011)

Columns and labels:
[1] = target: Cathepsin K (Homo sapiens, UniProt P43235); test: Inhibition of humanized rabbit cathepsin K
[2] = species on record: Homo sapiens; test: Selectivity ratio of IC50 for human cathepsin B to IC50 for human cathepsin K
[3] = species on record: Homo sapiens; test: Selectivity ratio of IC50 for human cathepsin F to IC50 for human cathepsin K
[4] = species on record: Homo sapiens; test: Selectivity ratio of IC50 for human cathepsin L to IC50 for human cathepsin K
[5] = species on record: Homo sapiens; test: Selectivity ratio of IC50 for human cathepsin S to IC50 for human cathepsin K
[6] = Ratio of product of IC50 for rabbit bone resorption and IC50 for humanized rabbit cathepsin K to IC50 for rabbit cathepsin K
[7] = Oral bioavailability in rat at 2 mg/kg, iv; format: ADME, organism-based; conditions: in vivo
[8] = Oral bioavailability in dog at 1 mg/kg, iv; format: ADME, organism-based, Canis lupus familiaris; conditions: in vivo
[9] = Aqueous equilibrium solubility of the compound in water; format: physicochemical
[10] = Lipophilicity, log D of the compound; format: physicochemical; conditions: octanol/water
[11] = Dissociation constant, pKa of the compound; format: physicochemical
[12] = Half life in rat at 10 mg/kg, po or 2 mg/kg, iv; format: ADME, organism-based; conditions: in vivo
[13] = Half life in dog at 5 mg/kg, po or 1 mg/kg, iv; format: ADME, organism-based, Canis lupus familiaris; conditions: in vivo

IC50 [1] [nM] | Ratio IC50 [2] | Ratio IC50 [3] | Ratio IC50 [4] | Ratio IC50 [5] | IC50 [6] [nM] | bioavailability [7] [%] | bioavailability [8] [%] | solubility thermodynamic [9] [µg/mL] | logD [10] | pKa [11] | half-life [12] [h] | half-life [13] [h] | Structure (SMILES)
0.2 | 26200 | 480 | 1320 | 890 | 3 |  |  |  |  |  |  |  | CC(C)C[C@H](N[C@@H](c1ccc(-c2ccc(S(C)(=O)=O)cc2)cc1)C(F)(F)F)C(=O)NCC#N
0.2 | 5170 | 3980 | 15000 | 300 | 5 | 8 | 6 |  |  |  |  |  | CC(C)(F)C[C@H](N[C@@H](c1ccc(-c2ccc(S(C)(=O)=O)cc2)cc1)C(F)(F)F)C(=O)NC1(C#N)CC1 [ODANACATIB]
1.6 | 5980 |  | 506 | 311 | 21 |  |  |  |  |  |  |  | CC(C)C[C@H](N[C@@H](c1ccc(-c2ccc(C(O)C(F)(F)F)cc2)cc1)C(F)(F)F)C(=O)NC1(C#N)CC1 (stereo not given in full)
0.8 | > 11900 | 645 | 894 | 1140 | 10 | 100 |  | < 10 | 0.11 | 2.7 | 0.8 |  | CC(C)C[C@H](N[C@@H](c1ccc(-c2ccc(S(C)(=O)=O)cc2)cc1)C(F)F)C(=O)NC1(C#N)CC1
0.3 | 7230 | 2340 | 12700 | 2880 | 4 |  |  |  |  |  |  |  | CC(C)(F)C[C@H](N[C@@H](c1ccc(-c2ccc(C3(C(N)=O)CC3)cc2F)cc1)C(F)F)C(=O)NC1(C#N)CC1
1.9 | > 5180 | 126 | 785 | 813 | 32 |  |  |  |  |  |  |  | CC(C)C[C@H](N[C@@H](c1ccc(-c2ccc(C(O)C(F)(F)F)cc2)cc1)C(F)F)C(=O)NC1(C#N)CC1 (stereo not given in full)
0.3 | > 32600 | 822 | 869 | 2000 | 15 |  |  |  |  |  |  |  | CC(C)C[C@H](N[C@@H](c1ccc(-c2ccc(S(C)(=O)=O)cc2)cc1)C(F)F)C(=O)NCC#N
0.3 | 4400 | 1380 | 9370 | 1200 | 2 |  |  |  |  |  |  |  | CC(C)(F)C[C@H](N[C@@H](c1ccc(-c2ccc(C3(C(N)=O)CC3)cc2F)cc1)C(F)(F)F)C(=O)NC1(C#N)CC1
0.3 | 23600 | 370 | 1390 | 809 | 3 | 4 |  | < 10 | 3.53 | < 2 | 2.6 |  | CC(C)C[C@H](N[C@@H](c1ccc(-c2ccc(S(C)(=O)=O)cc2)cc1)C(F)(F)F)C(=O)NC1(C#N)CC1
1 | 2300 | 1920 | 6330 | 210 | 9 | 22 | 23 |  |  |  | 3.8 | 35 | CC(C)(F)C[C@H](N[C@@H](c1ccc(-c2ccc(S(C)(=O)=O)cc2)cc1)C(F)F)C(=O)NC1(C#N)CC1
